# Values quoted from earlier work, collected in patent publication US20090220618A1, “PHARMACEUTICAL FORMULATIONS COMPRISING POLYANIONIC MATERIALS AND SOURCE OF HYDROGEN PEROXIDE” (priority 2008, published 2009).
# What was measured:
# [1] = at 25° C.
# [2] = tested on: sensitive tissues of the eye
Compound,pKa [1],concentration causing apoptosis [2],concentration causing growth arrest [2],concentrations causing necrosis [2]
CC(C)(CO)NCC(O)CS(=O)(=O)O (stereo not drawn) [AMP SO],9.0,–,–,–
O=S(=O)(O)CC(O)CN(CCO)CCO (stereo not drawn) [DIPSO],7.52,–,–,–
"O=S(=O)(O)CCCCNC(CO)(CO)CO [TABS, N-tris(hydroxymethyl)methyl-4-aminobutanesulfonic acid]",8.9,–,–,–
benzalkonium chloride [BAK],–,0.01%,0.00001%,0.05-0.1%
